Columns and labels:
[1] = molecular target: T1, recombinant integrin α4β7 (Homo sapiens, UniProt P13612+P26010, DEL724-798); test: Integrin α4β7—MAdCAM-1 ELISA competition assay; type: binding; conditions: for ELISA Assay Ratio b1/b7: ratio of a4b1 to a4b7 ELISA IC50; for IC50: read-out: ELISA a4b7 Assay IC50
T1 construct: purchased R&D Systems 5397-A3-050
T1 sequence (P13612 34-970 limits assumed): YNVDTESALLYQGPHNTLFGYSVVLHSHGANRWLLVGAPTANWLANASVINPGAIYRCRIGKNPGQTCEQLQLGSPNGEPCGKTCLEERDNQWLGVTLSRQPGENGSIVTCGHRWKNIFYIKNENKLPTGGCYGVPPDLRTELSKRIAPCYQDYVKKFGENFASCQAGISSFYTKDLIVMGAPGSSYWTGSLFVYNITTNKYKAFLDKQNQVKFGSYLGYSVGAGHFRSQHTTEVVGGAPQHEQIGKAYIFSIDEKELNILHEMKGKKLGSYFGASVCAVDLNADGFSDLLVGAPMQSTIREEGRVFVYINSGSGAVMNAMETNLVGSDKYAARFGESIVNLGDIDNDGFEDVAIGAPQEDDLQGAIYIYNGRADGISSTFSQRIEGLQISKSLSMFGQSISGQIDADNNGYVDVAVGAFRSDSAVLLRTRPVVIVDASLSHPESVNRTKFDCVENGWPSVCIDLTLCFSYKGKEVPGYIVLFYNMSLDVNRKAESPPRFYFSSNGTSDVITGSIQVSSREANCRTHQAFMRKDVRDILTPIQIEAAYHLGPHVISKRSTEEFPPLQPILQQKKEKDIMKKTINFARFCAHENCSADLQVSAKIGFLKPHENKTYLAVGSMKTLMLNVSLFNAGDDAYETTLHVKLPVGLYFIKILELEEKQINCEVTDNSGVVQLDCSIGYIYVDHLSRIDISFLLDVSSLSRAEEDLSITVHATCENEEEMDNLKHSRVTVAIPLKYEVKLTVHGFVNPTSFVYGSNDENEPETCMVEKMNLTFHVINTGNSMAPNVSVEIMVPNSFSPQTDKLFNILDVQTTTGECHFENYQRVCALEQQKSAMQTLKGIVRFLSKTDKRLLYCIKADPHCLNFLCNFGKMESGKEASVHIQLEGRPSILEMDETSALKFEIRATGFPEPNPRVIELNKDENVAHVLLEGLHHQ
T1 sequence (P26010 20-723 limits assumed): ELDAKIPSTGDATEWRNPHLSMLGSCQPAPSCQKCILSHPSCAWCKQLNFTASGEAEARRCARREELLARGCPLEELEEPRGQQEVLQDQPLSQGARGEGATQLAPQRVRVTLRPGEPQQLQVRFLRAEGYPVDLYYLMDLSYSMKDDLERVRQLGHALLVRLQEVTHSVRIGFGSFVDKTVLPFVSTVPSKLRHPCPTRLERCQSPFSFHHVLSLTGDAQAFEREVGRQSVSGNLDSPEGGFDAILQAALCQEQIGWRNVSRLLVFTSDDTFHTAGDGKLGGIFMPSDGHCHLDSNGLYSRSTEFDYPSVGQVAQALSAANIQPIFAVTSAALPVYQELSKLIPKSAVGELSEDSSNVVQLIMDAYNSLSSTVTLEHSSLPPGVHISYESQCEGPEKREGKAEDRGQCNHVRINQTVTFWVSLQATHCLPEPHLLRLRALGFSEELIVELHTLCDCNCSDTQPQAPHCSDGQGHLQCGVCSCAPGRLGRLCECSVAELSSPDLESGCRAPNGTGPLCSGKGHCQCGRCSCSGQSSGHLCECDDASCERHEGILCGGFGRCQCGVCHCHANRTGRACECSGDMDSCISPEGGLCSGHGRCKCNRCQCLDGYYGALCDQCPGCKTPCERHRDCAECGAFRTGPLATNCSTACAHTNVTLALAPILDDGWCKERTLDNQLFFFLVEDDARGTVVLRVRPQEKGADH

[2] = molecular target: T2, recombinant integrin α4β1 (Homo sapiens, UniProt P05556+P13612); test: Integrin α4β1—VCAM-1 competition ELISA; type: binding; conditions: read-out: ELISA a4b1 Assay IC50
T2 construct: purchased R&D Systems 5397-A3-050
T2 sequence (P05556 21-728 limits assumed, one chain of several): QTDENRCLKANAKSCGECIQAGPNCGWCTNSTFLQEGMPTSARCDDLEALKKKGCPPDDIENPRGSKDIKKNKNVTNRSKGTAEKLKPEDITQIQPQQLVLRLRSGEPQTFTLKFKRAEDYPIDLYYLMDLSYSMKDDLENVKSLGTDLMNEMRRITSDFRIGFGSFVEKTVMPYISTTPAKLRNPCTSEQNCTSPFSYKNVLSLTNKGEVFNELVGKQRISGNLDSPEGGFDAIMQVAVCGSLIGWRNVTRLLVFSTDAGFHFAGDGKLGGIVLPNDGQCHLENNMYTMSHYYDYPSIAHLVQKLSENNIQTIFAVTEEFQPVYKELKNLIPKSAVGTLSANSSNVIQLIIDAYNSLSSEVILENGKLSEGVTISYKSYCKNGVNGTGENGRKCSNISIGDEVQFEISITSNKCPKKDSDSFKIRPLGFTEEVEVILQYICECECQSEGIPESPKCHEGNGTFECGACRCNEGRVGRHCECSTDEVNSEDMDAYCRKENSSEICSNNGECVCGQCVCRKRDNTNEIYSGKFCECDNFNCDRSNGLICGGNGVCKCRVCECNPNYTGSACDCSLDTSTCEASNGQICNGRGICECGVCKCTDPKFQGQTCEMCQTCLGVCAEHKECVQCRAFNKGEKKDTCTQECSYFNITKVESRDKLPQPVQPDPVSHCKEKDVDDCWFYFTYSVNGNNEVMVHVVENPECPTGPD
Procedure, shortened: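 Compound dilutions added to coated plate and shaken at room temperature for 2 h (300 rpm) to binding equilibrium. Wash buffer: 50 mM Tris, 100 mM NaCl, 1 mM MnCl2, 0.05% Tween. Bound Fc-tagged ligand detected with anti-human IgG Fc-HRP, 1 h at room temperature.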

[3] = molecular target: T3, integrin α4β7 (RPMI8866 human cells adhering to MAdCAM-1) (Homo sapiens, UniProt P13612+P26010); test: Integrin α4β7-MAdCAM cell adhesion assay (RPMI8866 cells); type: cell-based; conditions: RPMI8866 cells adhering to MAdCAM; read-out: RPMI8866 Adhesion α4β7/MAdCAM IC50
T3 construct: RMP18866 cells, which express integrin α4β7; host or cells: RPMI8866
T3 sequence (P13612 34-1032): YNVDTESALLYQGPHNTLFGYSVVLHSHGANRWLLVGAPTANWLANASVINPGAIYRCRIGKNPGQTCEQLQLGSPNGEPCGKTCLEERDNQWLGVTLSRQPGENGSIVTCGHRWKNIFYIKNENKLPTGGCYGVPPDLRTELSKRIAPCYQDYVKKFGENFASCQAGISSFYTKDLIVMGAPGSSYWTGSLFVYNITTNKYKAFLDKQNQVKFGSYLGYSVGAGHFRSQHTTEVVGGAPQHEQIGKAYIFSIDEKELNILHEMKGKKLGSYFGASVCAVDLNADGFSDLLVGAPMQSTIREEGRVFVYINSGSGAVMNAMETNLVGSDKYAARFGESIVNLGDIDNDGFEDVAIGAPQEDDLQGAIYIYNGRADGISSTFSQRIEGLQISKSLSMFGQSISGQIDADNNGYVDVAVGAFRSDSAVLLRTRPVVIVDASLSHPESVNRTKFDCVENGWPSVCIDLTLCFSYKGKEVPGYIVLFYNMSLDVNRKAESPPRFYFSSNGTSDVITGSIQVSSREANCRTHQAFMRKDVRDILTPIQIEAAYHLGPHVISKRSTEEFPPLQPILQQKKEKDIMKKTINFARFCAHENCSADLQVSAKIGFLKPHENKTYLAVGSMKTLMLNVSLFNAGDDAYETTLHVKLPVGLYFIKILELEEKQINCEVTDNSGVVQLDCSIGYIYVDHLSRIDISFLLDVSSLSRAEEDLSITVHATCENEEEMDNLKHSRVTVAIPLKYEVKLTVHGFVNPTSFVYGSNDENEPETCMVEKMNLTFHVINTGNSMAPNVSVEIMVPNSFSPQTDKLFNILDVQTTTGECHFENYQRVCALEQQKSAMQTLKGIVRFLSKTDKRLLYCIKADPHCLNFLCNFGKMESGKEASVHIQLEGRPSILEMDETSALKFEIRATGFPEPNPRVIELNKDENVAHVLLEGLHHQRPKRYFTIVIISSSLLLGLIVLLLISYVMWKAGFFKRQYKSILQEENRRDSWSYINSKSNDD
T3 sequence (P26010 20-798): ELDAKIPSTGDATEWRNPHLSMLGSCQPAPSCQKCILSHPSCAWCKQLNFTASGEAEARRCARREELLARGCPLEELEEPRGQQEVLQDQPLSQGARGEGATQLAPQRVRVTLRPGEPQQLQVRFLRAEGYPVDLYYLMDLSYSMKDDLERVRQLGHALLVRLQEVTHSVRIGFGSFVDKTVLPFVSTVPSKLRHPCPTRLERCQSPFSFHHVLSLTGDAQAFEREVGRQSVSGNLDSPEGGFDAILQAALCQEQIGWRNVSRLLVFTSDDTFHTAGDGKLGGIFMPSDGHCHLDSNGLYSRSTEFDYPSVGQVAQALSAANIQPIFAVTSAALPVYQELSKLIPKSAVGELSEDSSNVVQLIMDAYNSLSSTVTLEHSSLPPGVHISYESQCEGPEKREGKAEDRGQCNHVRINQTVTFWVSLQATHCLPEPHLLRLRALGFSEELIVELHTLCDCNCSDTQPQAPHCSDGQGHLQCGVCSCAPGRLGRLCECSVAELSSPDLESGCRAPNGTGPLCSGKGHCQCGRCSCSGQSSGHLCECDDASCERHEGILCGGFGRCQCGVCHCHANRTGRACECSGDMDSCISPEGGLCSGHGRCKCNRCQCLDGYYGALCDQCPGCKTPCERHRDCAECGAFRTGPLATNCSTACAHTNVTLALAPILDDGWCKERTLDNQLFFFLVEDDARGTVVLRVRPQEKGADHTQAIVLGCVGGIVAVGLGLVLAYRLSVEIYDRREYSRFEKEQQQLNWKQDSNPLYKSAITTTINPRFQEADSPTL
Protocol: Integrin α4β7-MAdCAM Cell Adhesion Assay
RPMI8866 cells were resuspended at 10 million cells/ml in PBS containing […] and incubated at 37° C. for 30 min in a 50 ml tube. […] The plate was emptied by inverting and blotting on paper towels and washed manually twice with PBS. 100 μl PBS was then added to each well. […] To calculate the dose response, the fluorescence value of control wells not containing cells was subtracted from each test well.

SMILES: CC(C)C[C@@H]1NC(=O)C[C@H](CCCCN)NC(=O)[C@H](Cc2ccccc2-c2ccc(N3CCNCC3)cc2)NC(=O)[C@@H]2CCCN2[C@H](C(=O)NC(C)(C)C)[C@H](C)NC(=O)[C@H]([C@@H](C)O)NC(=O)[C@H](CC(=O)O)NC1=O [Compound 271]
- ELISA Assay Ratio b1/b7 [1]: 34.6
- IC50 [2]: 1.15 µM

SMILES: CC(C)C[C@@H]1NC(=O)C[C@H](CCCCN)NC(=O)C2(CCNCC2)NC(=O)[C@@H]2CCCN2[C@H](C(=O)NC(C)(C)C)[C@H](C)NC(=O)[C@H]([C@@H](C)O)NC(=O)[C@H](CC(=O)O)NC1=O [Compound 275]
- ELISA Assay Ratio b1/b7 [1]: 7.7
- IC50 [1]: 0.101 µM
- IC50 [2]: 0.779 µM

SMILES: CC[C@@H](C)[C@@H]1NC(=O)[C@H](CC(=O)O)NC(=O)[C@H](CC(C)C)NC(=O)C[C@H](CCCCN)NC(=O)[C@H](Cc2ccc(CN)cc2)NC(=O)[C@@H]2CCCN2[C@H](C(=O)NC(C)(C)C)[C@H](C)NC1=O [Compound 285]
- ELISA Assay Ratio b1/b7 [1]: 6.2
- IC50 [1]: 0.089 µM
- IC50 [2]: 0.553 µM

SMILES: CC(C)C[C@@H]1NC(=O)C[C@H](CCCCN)NC(=O)C2(Cc3ccccc3C2)NC(=O)[C@@H]2CCCN2[C@H](C(=O)NC(C)(C)C)[C@H](C)NC(=O)[C@H]([C@@H](C)O)NC(=O)[C@H](CC(=O)O)NC1=O [Compound 288]
- ELISA Assay Ratio b1/b7 [1]: 12.2
- IC50 [1]: 0.136 µM
- IC50 [2]: 1.66 µM

SMILES: CC(C)C[C@@H]1NC(=O)C[C@H](CCCCN)NC(=O)CN(Cc2ccccc2)C(=O)[C@@H]2CCCN2[C@H](C(=O)NC(C)(C)C)[C@H](C)NC(=O)[C@H]([C@@H](C)O)NC(=O)[C@H](CC(=O)O)NC1=O [Compound 296]
- ELISA Assay Ratio b1/b7 [1]: 94.8
- IC50 [2]: 14.7 µM

SMILES: CC(C)C[C@@H]1NC(=O)c2ccc(-c3ccncc3)c(c2)CNC(=O)[C@H](Cc2ccc(O)cc2)NC(=O)[C@@H]2CCCN2[C@H](C(=O)NC(C)(C)C)[C@H](C)NC(=O)[C@H]([C@@H](C)O)NC(=O)[C@H](CC(=O)O)NC1=O [Compound 337]
- ELISA Assay Ratio b1/b7 [1]: 2.9
- IC50 [1]: 0.061 µM
- IC50 [2]: 0.177 µM

SMILES: CC(C)C[C@@H]1NC(=O)c2ccc(-c3cccc4ncccc34)c(c2)CNC(=O)[C@@H]2CCCN2[C@H](C(=O)NC(C)(C)C)[C@H](C)NC(=O)[C@H]([C@@H](C)O)NC(=O)[C@H](CC(=O)O)NC1=O [Compound 347]
- ELISA Assay Ratio b1/b7 [1]: 1.3
- IC50 [1]: 0.023 µM
- IC50 [2]: 0.03 µM

SMILES: CC(C)C[C@@H]1NC(=O)c2ccc(-c3ccccc3N3CCNCC3)c(c2)CNC(=O)[C@@H]2CCCN2[C@H](C(=O)NC(C)(C)C)[C@H](C)NC(=O)[C@H]([C@@H](C)O)NC(=O)[C@H](CC(=O)O)NC1=O [Compound 348]
- ELISA Assay Ratio b1/b7 [1]: 1.5
- IC50 [1]: 0.027 µM
- IC50 [2]: 0.041 µM

SMILES: CC(C)C[C@@H]1NC(=O)c2cccc(c2)CNC(=O)[C@@H]2CCCN2[C@H](C(=O)NC(C)(C)C)[C@H](C)NC(=O)[C@H]([C@@H](C)O)NC(=O)[C@H](CC(=O)O)NC1=O [Compound 358]
- ELISA Assay Ratio b1/b7 [1]: 8.7
- IC50 [1]: 0.127 µM
- IC50 [2]: 1.11 µM

SMILES: CC(C)C[C@@H]1NC(=O)c2cc(cc(-c3ccncc3)c2)CNC(=O)[C@@H]2CCCN2[C@H](C(=O)NC(C)(C)C)[C@H](C)NC(=O)[C@H]([C@@H](C)O)NC(=O)[C@H](CC(=O)O)NC1=O [Compound 362]
- ELISA Assay Ratio b1/b7 [1]: 5.6
- IC50 [1]: 0.043 µM
- IC50 [2]: 0.238 µM

SMILES: CC(C)C[C@@H]1NC(=O)c2ccc(-c3ccc(N4CCN(C(=O)C5(C(=O)N6CCN(c7ccc(-c8ccc9cc8CNC(=O)[C@@H]8CCCN8[C@H](C(=O)NC(C)(C)C)[C@H](C)NC(=O)[C@H]([C@@H](C)O)NC(=O)[C@H](CC(=O)O)NC(=O)[C@H](CC(C)C)NC9=O)cc7)CC6)CC5)CC4)cc3)c(c2)CNC(=O)[C@@H]2CCCN2[C@H](C(=O)NC(C)(C)C)[C@H](C)NC(=O)[C@H]([C@@H](C)O)NC(=O)[C@H](CC(=O)O)NC1=O [Compound 459]
- IC50 [3]: 0.033 µM
